PubChem BioAssay (NCI)
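These data come from cells grown in 96-well plates and exposed to compound for 48 hours at five concentrations. At the TGI there is no net growth.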

Assays:
Test in all cases: DTP human tumour cell line panel, 48 h
[1] = system: UO-31 renal
[2] = system: HL-60(TB) leukemia
[3] = system: RXF 393 renal
[4] = system: HCT-116 colon
[5] = system: A549 NSCLC
[6] = system: RPMI-8226 leukemia
[7] = system: MOLT-4 leukemia
[8] = system: EKVX NSCLC
[9] = system: HT29 colon
[10] = system: MALME-3M melanoma
[11] = system: OVCAR-5 ovarian
[12] = system: U251 CNS
[13] = system: UACC-62 melanoma
[14] = system: COLO 205 colon
[15] = system: SN12C renal
[16] = system: SNB-19 CNS
[17] = system: OVCAR-3 ovarian
[18] = system: HCC-2998 colon
[19] = system: IGROV1 ovarian
[20] = system: MDA-MB-231 breast

| SMILES | TGI [1] [µM] | TGI [2] [µM] | TGI [3] [µM] | TGI [4] [µM] | TGI [5] [µM] | TGI [6] [µM] | TGI [7] [µM] | TGI [8] [µM] | TGI [9] [µM] | TGI [10] [µM] | TGI [11] [µM] | TGI [12] [µM] | TGI [13] [µM] | TGI [14] [µM] | TGI [15] [µM] | TGI [16] [µM] | TGI [17] [µM] | TGI [18] [µM] | TGI [19] [µM] | TGI [20] [µM] |
| --- | --- | --- | --- | --- | --- | --- | --- | --- | --- | --- | --- | --- | --- | --- | --- | --- | --- | --- | --- | --- |
| c1ccc([P+](CC[P+](c2ccccc2)(c2ccccc2)c2ccccc2)(c2ccccc2)c2ccccc2)cc1 | > 100 | 55.2 | > 83.4 | > 100 | > 100 | 7.79 | > 100 | > 100 | > 100 | > 63.4 | > 100 | 21 | > 100 | 24.9 | > 100 | > 100 | > 59.7 | 44.5 | > 100 | 98.4 |
| O=C(Nc1nncs1)NS(=O)(=O)n1c(=S)sc2ccccc21 | > 100 | > 100 | > 100 | > 100 | > 100 | > 100 | > 100 | > 100 | > 100 | > 100 | > 100 | > 100 | > 100 | > 100 | > 100 | > 100 | > 100 | > 100 | > 100 | > 100 |
| CCOC(=O)CO/N=C1/C(c2c(O)[nH]c3ccccc23)=Nc2ccccc21 | > 100 | > 100 | 29.2 | > 100 | > 100 | > 100 | 78.5 | > 100 | > 100 | > 100 | > 100 | 66.1 | > 100 | > 100 | > 100 | 89.4 | 55 | > 100 | 79.2 | 43.3 |
| O=C(Oc1cccnc1)c1cc2cc(CCl)ccc2oc1=O | 44.5 | 58.4 | 31.5 | 38.7 | > 100 | 66 | 61.4 | 52.1 | 39.9 | 54.9 | 64.6 | 57.2 | 36.9 | 69.5 | 50.1 | > 100 | 57.9 | > 100 | 66.3 | 43.2 |
| CCCCSC1=N/C(=C\c2ccco2)C(Cl)=N1 | > 100 | > 100 | > 100 | > 100 | > 100 | > 100 | > 100 | > 100 | > 100 | > 100 | > 100 | > 100 | > 100 | > 100 | > 100 | > 100 | > 100 | > 100 | > 100 | > 100 |
| CC(C(=O)OCc1ccccc1)(c1ccco1)N1C(=O)OC(c2ccccc2)C1c1ccccc1 (stereo not given) | > 100 | > 100 | > 100 | > 100 | > 100 | > 100 | > 100 | > 100 | > 100 | > 100 | > 100 | > 100 | > 100 | > 100 | > 100 | > 100 | > 100 | > 100 | > 100 | > 100 |
| O=[N+]([O-])/C(C(Cl)=C(Cl)Cl)=C(/Nc1ccccc1)SCc1ccccc1 | 39 | 40.2 | 35.5 | 30.2 | 33.5 | 37.7 | 37.3 | 48.6 | 66.1 | 30.1 | 41.2 | 34.6 | 44.6 | 42.4 | 44.2 | 58.4 | 28.7 | 45 | 39.9 | 36.4 |
| O=C1C=CC(=O)c2c1ccc1c3ccccc3n(-c3cccc([N+](=O)[O-])c3)c21 | > 10 | 1.29 | 4.48 | 3.91 | > 10 | 3.9 | 1.07 | > 9.51 | > 10 | 4 | > 10 | > 10 | > 3.16 | 3.21 | > 10 | > 10 | 4.57 | > 10 | > 10 | 5.81 |
| CC(=O)N(CCc1ccccc1)C(C#N)c1ccccc1 (stereo not given) | > 100 | > 100 | > 100 | > 100 | > 100 | > 100 | > 100 | > 100 | > 100 | > 100 | > 100 | > 100 | > 100 | > 100 | > 100 | > 100 | > 100 | > 100 | > 100 | > 100 |
| S=C1SSC2N=CC=CC12 (stereo not given) | > 100 | > 100 | > 100 | > 100 | > 100 | > 100 | > 100 | > 100 | > 100 | > 100 | > 100 | > 100 | > 100 | > 100 | > 100 | > 100 | > 100 | 61.4 | > 100 | > 100 |
